From US9844546B2, “Antibody against human HIF hydroxylase” (OXFORD UNIVERSITY INNOVATION LIMITED, priority 2001, dated 2017) come the findings set out here.

Experiment [1] concerns angiogenesis in subcutaneous polyurethane sponge. The experiment in a line: Murine subcutaneous sponge angiogenesis assay. To be noted: 1 mM, 100 microliters injected days 1, 2, 4, 5; day 7; versus solvent. In kind it is in vivo, mouse. The procedure: Implantation of a polyurethane sponge subcutaneously in a mouse provides an inflammatory stimulus to angiogenesis and is a well established model for assessing the pro- and anti-angiogenic effects of compounds. To test the effects of dimethyl oxalylglycine in vivo, sterile 8 mm sponge discs were inserted under the dorsal skin of C57 Black mice on Day 0. Test solutions were injected through the skin into the sponges of mice once per day on days 1, 2, 4 and 5. Individual mice received 100 microliters aliquots of either sterile dimethyloxalylglycine (0.1 mM, 1 mM or 10 mM) or carrier solution. Animals were sacrificed on day 7 and the sponges removed. The sponges were fixed in 3.7% formaldehyde, paraffin embedded and stained immunohistochemically for von Willebrand factor to identify blood vessels.
Artificial activation of the HIF signalling pathway using the methods of the invention should induce angiogenesis and will therefore be of potential therapeutic use in ischaemic disease. We tested the effect of polypeptide induced HIF stabilisation in an in vitro angiogenesis assay, co-culturing human microvascular endothelial cells (HMEC-1) with empty vector transfected or doxCODD cells. In view of the possibility of sustained activation inducing a negative feedback loop we opted to test the effects of intermittent induction. […]

A further experiment deals with Hep3B and U2OS cells. The experiment in a line: Immunoblot of HIF-1α and CA-9 in cells exposed to inhibitor. Format: cell-based, human. As to conditions: 0.1 or 1 mM, 6 hours; for HIF-1α level (immunoblot): normoxic culture. The source says:
We went on to test a series of 2-oxoglutarate analogues which act as competitive inhibitors of this class of enzyme (29) for ability to inhibit HIF-PH as assessed by the ability of cell extracts to modify either HIF polypeptide (19:WT) or a HIF fusion protein (Gal/HIF-1α549-582/VP16) so as to promote pVHL capture. Concordant results were obtained with both sources of HIF sequence. In one such experiment the effect of N-oxalylglycine on pVHL capture by a biotinylated HIF polypeptides as substrate was monitored. The WT:19 and 19:Pro564Hyp polypeptides described above were used as substrates. […] Inhibition by N-Oxalylglycine was overcome by addition of 5 mM 2-oxoglutarate. As previously, 19:Pro564Hyp captured pVHL efficiently without modification by cell extract, and this was not influenced by exposure to N-oxalylglycine. […] We also used a 2-oxoglutarate dependent dioxygenase, phytanoyl-CoA α-hydroxylase (30), together with a readily available unnatural substrate (isovaleryl CoA) (31) to deplete the cell extract of 2-oxoglutarate produced by the citric acid cycle; as predicted, this prevented the subsequent modification of HIF polypeptide. The effect of dimethyl-oxalyglycine on HIF-1α expression was also studied. HIF-1α immunoblot analysis of extracts of Hep3B and U2OS cells exposed to dimethyl-oxalylgylcine (0, 0.1 or 1.0 mM) for 6 hours was carried out.
Hep3B and U2OS cells were exposed to either 0.1 mM or 1 mM dimethyloxalylglycine for 6 hours, harvested and assayed by immunoblotting (Western blotting) for changes in the level of HIF-1α and CA-9 expression. Controls, where no inhibitor was added, were also performed. […] Upregulation of HIF-1α increased with increasing concentration of dimethyloxalylglycine, whilst the level of CA-9 expression was similar after exposure to both 0.1 and 1 mM of dimethyloxalylglycine.
(In general: Immunoblotting shows a protein as a band on a membrane.)

The next experiment relates to HIF. The experiment in a line: Induction of HIF in tissue culture by esterified equivalents. Format: cell-based. To be noted: In-vivo esterified equivalent.
The subject of the next experiment is Hep3b and U20S cells. Kind of experiment: Gal4/HIF-1α 775-826 carboxy terminal transactivator luciferase reporter assay. Format: cell-based, human. As to conditions: normoxia or 2% hypoxia overnight. The procedure: Hep3b and U20S cells were co-transfected with a mixture of three plasmids; pUAS.tk.luc, encoding a GAL 4 responsive luciferase gene, pgal-hif775-826, a mammalian expression plasmid leading to expression of a fusion between a 147 amino acid DNA binding domain of GAL 4 and the carboxy terminal transactivator of human HIF-1 alpha, and pCMV.beta-gal, encoding a constitutively expressed beta-galactosidase gene as a transfection control.
48 hours following transfection, cells were incubated in normoxia or 2% hypoxia overnight in the presence or absence of dimethyl oxalyl glycine as indicated. Cell lysates were assayed for luciferase and beta galactosidase activity and the relative luciferase activity in each sample determined.
On the technique in general: In a reporter assay the amount or activity of a reporter protein is the signal.

“Also recorded” adds a separate entry of the source.

In the case of `COC(=O)CNC(=O)C(=O)OC` [dimethyloxalylglycine], the “blood vessels in sponges (von Willebrand factor)” value in experiment [1] is listed as “Considerably more blood vessels”. Besides, the “CA-9 expression (immunoblot)” value in the experiment with Hep3B and U2OS cells is “Clear upregulation”. Also, the “HIF-1α level (immunoblot)” value in the experiment with Hep3B and U2OS cells was “increase intracellular levels of HIF-1; also recorded: Clear upregulation”; in the experiment with Hep3B and U2OS cells (listed as dimethyl-oxalylgylcine), “strongly induced”. Besides, the “Induction of HIF in tissue culture” value in the experiment with HIF is recorded as “Yes”. Also, in the experiment with Hep3b and U20S cells, the “relative luciferase activity (carboxy terminal transactivator)” value is listed as “enhanced activity of the carboxy terminal transactivator”.
